# US11319322B2, “Substituted aryl ether compound, preparation method thereof, pharmaceutical composition and use thereof” (Xiamen University, priority 2017, dated 2022)
# Columns and labels:
# Format in all cases: cell-based
# [1] = system: wild-type BaF3; assay: Growth inhibition of wild-type BaF3 cells, broad-spectrum toxicity (MTS); conditions: Mus musculus, 48 h, read-out: WT Ba/F3 (IC50/nM)
# Procedure: Growth inhibitory activity of compounds on cell lines stably transfected with kinase
# The activity of compounds against kinase RET is evaluated by their effect of inhibiting growth of cell lines stably transfected with kinase CCDC6-RET-BaF3, KIF5B-RET-BaF3, and wild-type BaF3 (Proc. Natl. Acad. Sci. USA., 2006, 103, 3153-8.). The growth of the cell lines stably transfected with kinase CCDC6-RET-BaF3, KIF5B-RET-BaF3 depends on their kinase activity. If a compound can inhibit the activity of the kinase RET per se or the activity of the RET signaling pathway, the compound can inhibit the growth of BaF3 cells stably transfected with kinase. […] Therefore, a larger ratio between IC50 of a compound to wild-type BaF3 and IC50 of the compound to the cell lines stably transfected with kinase CCDC6-RET-BaF3, KIF5B-RET-BaF3 indicates better targeting.
# The specific test method is given as follows:
# 1) Medium: DMEM (Dulbecco's modified eagle medium) or RPMI 1640 (containing 10% fetal bovine serum, 100 μg/mL ampicillin, 100 μg/mL streptomycin).
# 2) Reagents: MTS reaction solution (containing 2 mg/mL of MTS [3-(4,5-dimethylthiazol-2-yl)-5-(3-carboxymethoxyphenyl)-2-(4-sulfophenyl)-2H-tetrazolium, inner Salt]; 100 μg/mL PES (phenazine […])).
# 3) Compound test: cells stably transfected with kinase (CCDC6-RET-BaF3, KIF5B-RET-BaF3) or wild-type BaF3 cells (2×10^4 cells/well) were incubated into a 96-well culture plate, the volume of cell culture fluid was 90 μL, and then 10 μL of the compound at each gradient concentration was added (the highest concentration was 10 μM, which was diluted stepwise by ⅓, and 8 concentration points were set in total; the system contained 0.1% DMSO (dimethyl sulfoxide)). The cell plate with uniformly mixed compound was cultured in a cell culture incubator (37° C.; 5% CO2) for 48 h, then 20 μL of MTS reaction solution was added, uniformly mixed and incubated in the cell culture incubator (37° C.; 5% CO2) for 1-4 hr, OD values at 490 nm were measured by a microplate reader (VARIOSKAN FLASH, Thermo). Three parallels were set in each group of experiments, with 0.1% (a final concentration) DMSO as a negative control, and a medium without cells or compounds as a blank control. The cell growth inhibition rate was calculated by the following formula: Cell growth inhibition rate %=1−(ODexperimental group−ODblank group)/(ODnegative group−ODblank group)×100%
# 4) IC50 calculation: The semi-inhibitory concentration of the compound acting on cell growth was calculated using GradPad Prism 5 software according to the measured cell growth inhibition rate.
# [2] = biological target: T1, KIF5B-RET-BaF3 (Homo sapiens, UniProt P07949); assay: Growth inhibition of KIF5B-RET-BaF3 cells stably transfected with kinase (MTS); conditions: 48 h, read-out: KIF5B-RET (IC50/nM)
# T1 construct: fused on or other part: P33176 (Kinesin-1 heavy chain)
# Outline: (§1)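 IC50 derived from growth inhibition by MTS absorbance at 490 nm after 48 h compound exposure (top 10 μM, 1:3 steps, 8 points, 0.1% DMSO) of 2×10^4 RET-fusion (CCDC6-RET, KIF5B-RET) or wild-type BaF3 cells per well, in triplicate.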
# [3] = biological target: T2, CCDC6-RET-BaF3 (Homo sapiens, UniProt P07949); assay: Growth inhibition of CCDC6-RET-BaF3 cells stably transfected with kinase (MTS); conditions: 48 h, read-out: CCDC6-RET (IC50/nM)
# T2 construct: fused on or other part: Q16204 (Coiled-coil domain-containing protein 6)
# Outline: as §1
# T2 sequence (P07949 whole entry, change not shown, the tested form may be a part): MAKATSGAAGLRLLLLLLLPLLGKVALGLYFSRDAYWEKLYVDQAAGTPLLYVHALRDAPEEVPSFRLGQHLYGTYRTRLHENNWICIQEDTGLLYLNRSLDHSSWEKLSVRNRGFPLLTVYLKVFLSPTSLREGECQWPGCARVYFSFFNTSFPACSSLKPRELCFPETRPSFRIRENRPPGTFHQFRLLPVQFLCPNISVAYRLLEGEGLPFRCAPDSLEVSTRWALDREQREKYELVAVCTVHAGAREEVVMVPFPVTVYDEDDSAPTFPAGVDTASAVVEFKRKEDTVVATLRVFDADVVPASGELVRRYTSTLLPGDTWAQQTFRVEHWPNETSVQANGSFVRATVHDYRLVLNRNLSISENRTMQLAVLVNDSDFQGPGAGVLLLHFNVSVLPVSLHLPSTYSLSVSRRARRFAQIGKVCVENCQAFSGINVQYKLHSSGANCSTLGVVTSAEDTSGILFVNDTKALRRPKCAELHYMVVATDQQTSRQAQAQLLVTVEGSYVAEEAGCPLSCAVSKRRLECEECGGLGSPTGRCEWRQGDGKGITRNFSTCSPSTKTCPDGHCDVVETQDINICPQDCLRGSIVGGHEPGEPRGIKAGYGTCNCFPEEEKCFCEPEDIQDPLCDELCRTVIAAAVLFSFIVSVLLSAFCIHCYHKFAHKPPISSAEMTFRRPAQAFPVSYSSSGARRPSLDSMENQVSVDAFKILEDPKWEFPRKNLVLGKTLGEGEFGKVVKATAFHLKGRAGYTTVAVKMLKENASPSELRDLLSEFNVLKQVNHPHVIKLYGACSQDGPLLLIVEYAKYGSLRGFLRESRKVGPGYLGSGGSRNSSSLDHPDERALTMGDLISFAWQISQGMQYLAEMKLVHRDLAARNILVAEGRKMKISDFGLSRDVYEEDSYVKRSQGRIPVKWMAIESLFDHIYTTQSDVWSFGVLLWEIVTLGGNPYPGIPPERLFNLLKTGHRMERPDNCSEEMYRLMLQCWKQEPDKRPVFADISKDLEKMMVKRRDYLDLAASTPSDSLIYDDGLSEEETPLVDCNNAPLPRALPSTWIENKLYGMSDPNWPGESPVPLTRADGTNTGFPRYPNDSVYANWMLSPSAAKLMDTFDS
# T1 sequence (P07949 whole entry, change not shown, the tested form may be a part): as above
SMILES,IC50 [1],GI50 [2],GI50 [3]
Cc1ccc(Oc2nc(-c3ccsc3)nc3c2ncn3C)cc1NC(=O)c1ccc(CN2CCN(C)CC2)c(C(F)(F)F)c1 [I-j-7],2410 nM,1440 nM,1030 nM
CN1CCN(Cc2ccc(NC(=O)c3cccc(Oc4nc(-c5ccncc5)nc5[nH]cnc45)c3)cc2C(F)(F)F)CC1 [I-l-1],> 10000 nM,1950 nM,476 nM
CN1CCN(Cc2ccc(NC(=O)c3cccc(Oc4nc(-c5ccncc5)nc5c4ncn5C)c3)cc2C(F)(F)F)CC1 [I-l-3],> 10000 nM,5.88 nM,25.2 nM
Cc1ccc(C(=O)Nc2ccc(CN3CCN(C)CC3)c(C(F)(F)F)c2)cc1Oc1nc(-c2ccncc2)nc2[nH]cnc12 [I-m-1],> 10000 nM,810 nM,504 nM
Cc1ccc(Oc2nc(-c3ccncc3)nc3[nH]cnc23)cc1C(=O)Nc1ccc(CN2CCN(C)CC2)c(C(F)(F)F)c1 [I-n-1],> 10000 nM,900 nM,298 nM
Cc1ccc(Oc2nc(-c3cccnc3)nc3c2ncn3C)cc1C(=O)Nc1ccc(CN2CCN(C)CC2)c(C(F)(F)F)c1 [I-n-2],1610 nM,3640 nM,3210 nM
Cc1ccc(C(=O)Nc2cccc(C(F)(F)F)c2)cc1Oc1nc(-c2ccncc2)nc2c1cnn2C [II-e-2],> 10000 nM,1770 nM,1430 nM
CN1CCN(Cc2ccc(C(=O)Nc3cccc(Oc4nc(-c5cccnc5)nc5[nH]ncc45)c3)cc2C(F)(F)F)CC1 [II-h-3],4090 nM,820 nM,343 nM
CN1CCN(Cc2ccc(C(=O)Nc3cccc(Oc4nc(-c5ccncc5)nc5[nH]ncc45)c3)cc2C(F)(F)F)CC1 [II-h-4],3930 nM,300 nM,78.6 nM
Cc1ccc(Oc2nc(-c3cccnc3)nc3[nH]ncc23)cc1NC(=O)c1ccc(CN2CCN(C)CC2)c(C(F)(F)F)c1 [II-j-5],7400 nM,3890 nM,2370 nM
Cc1ccc(Oc2nc(-c3ccncc3)nc3[nH]ncc23)cc1NC(=O)c1ccc(CN2CCN(C)CC2)c(C(F)(F)F)c1 [II-j-6],4230 nM,44.2 nM,7.96 nM
CN1CCN(Cc2ccc(C(=O)Nc3cc(Oc4nc(-c5cccnc5)nc5[nH]ncc45)ccc3Cl)cc2C(F)(F)F)CC1 [II-k-3],1340 nM,1350 nM,567 nM
CN1CCN(Cc2ccc(C(=O)Nc3cc(Oc4nc(-c5ccncc5)nc5[nH]ncc45)ccc3Cl)cc2C(F)(F)F)CC1 [II-k-4],> 10000 nM,104 nM,37.7 nM
Cc1ccc(C(=O)Nc2ccc(CN3CCN(C)CC3)c(C(F)(F)F)c2)cc1Oc1nc(-c2cccnc2)nc2[nH]ncc12 [II-m-20],> 10000 nM,74.3 nM,10.6 nM
Cc1ccc(C(=O)Nc2ccc(CN3CCN(C)CC3)c(C(F)(F)F)c2)cc1Oc1nc(-c2ccncc2)nc2[nH]ncc12 [II-m-21],4780 nM,240 nM,73.4 nM
Cc1ccc(Oc2nc(-c3ccccc3)nc3cc[nH]c23)cc1NC(=O)c1ccc(CN2CCN(C)CC2)c(C(F)(F)F)c1 [III-j-3],3780 nM,2350 nM,2480 nM

SMILES,IC50 [1],GI50 [2],GI50 [3]
Cc1ccc(Oc2nc(-c3ccsc3)nc3cc[nH]c23)cc1NC(=O)c1ccc(CN2CCN(C)CC2)c(C(F)(F)F)c1 [III-j-4],3410 nM,1720 nM,1360 nM
Cc1ccc(Oc2nc(-c3ccccc3)nc3ccn(C)c23)cc1NC(=O)c1ccc(CN2CCN(C)CC2)c(C(F)(F)F)c1 [III-j-7],2560 nM,1370 nM,1270 nM
Cc1ccc(Oc2nc(-c3ccsc3)nc3ccn(C)c23)cc1NC(=O)c1ccc(CN2CCN(C)CC2)c(C(F)(F)F)c1 [III-j-8],1880 nM,1320 nM,1140 nM
Cc1ccc(Oc2nc(-c3ccoc3)nc3cc[nH]c23)cc1NC(=O)c1ccc(CN2CCN(C)CC2)c(C(F)(F)F)c1 [III-j-9],4260 nM,464 nM,97.6 nM
Cc1ccc(Oc2nc(-c3ccoc3)nc3ccn(C)c23)cc1NC(=O)c1ccc(CN2CCN(C)CC2)c(C(F)(F)F)c1 [III-j-10],1460 nM,428 nM,234 nM
Cc1ccc(Oc2nc(-c3ccc(Cl)cc3)nc3cc[nH]c23)cc1NC(=O)c1ccc(CN2CCN(C)CC2)c(C(F)(F)F)c1 [III-j-11],1360 nM,1570 nM,1530 nM
Cc1ccc(Oc2nc(-c3ccc(Cl)cc3)nc3ccn(C)c23)cc1NC(=O)c1ccc(CN2CCN(C)CC2)c(C(F)(F)F)c1 [III-j-12],2150 nM,2970 nM,2660 nM
Cc1ccc(Oc2nc(-c3ccc(O)cc3)nc3cc[nH]c23)cc1NC(=O)c1ccc(CN2CCN(C)CC2)c(C(F)(F)F)c1 [III-j-13],4150 nM,2400 nM,1720 nM
Cc1ccc(Oc2nc(-c3ccc(O)cc3)nc3ccn(C)c23)cc1NC(=O)c1ccc(CN2CCN(C)CC2)c(C(F)(F)F)c1 [III-j-14],1340 nM,1380 nM,876 nM
Cc1ccc(Oc2nc(-c3ccc(N)cc3)nc3cc[nH]c23)cc1NC(=O)c1ccc(CN2CCN(C)CC2)c(C(F)(F)F)c1 [III-j-15],1200 nM,620 nM,745 nM
Cc1ccc(Oc2nc(-c3ccc(N)cc3)nc3ccn(C)c23)cc1NC(=O)c1ccc(CN2CCN(C)CC2)c(C(F)(F)F)c1 [III-j-16],2280 nM,1470 nM,2040 nM
Cc1ccc(Oc2ncnc3ccn(C)c23)cc1NC(=O)c1ccc(CN2CCN(C)CC2)c(C(F)(F)F)c1 [III-j-18],> 10000 nM,1350 nM,477 nM
CN1CCN(Cc2ccc(C(=O)Nc3cc(Oc4nc(-c5cccnc5)nc5cc[nH]c45)ccc3Cl)cc2C(F)(F)F)CC1 [III-k-1],4160 nM,1320 nM,1860 nM
CN1CCN(Cc2ccc(C(=O)Nc3cc(Oc4nc(-c5ccncc5)nc5cc[nH]c45)ccc3Cl)cc2C(F)(F)F)CC1 [III-k-2],1340 nM,17.2 nM,0.79 nM
CN1CCN(Cc2ccc(C(=O)Nc3cc(Oc4nc(-c5cccnc5)nc5ccn(C)c45)ccc3Cl)cc2C(F)(F)F)CC1 [III-k-3],1170 nM,1190 nM,1250 nM
CN1CCN(Cc2ccc(C(=O)Nc3cc(Oc4nc(-c5ccncc5)nc5ccn(C)c45)ccc3Cl)cc2C(F)(F)F)CC1 [III-k-4],1620 nM,70.7 nM,11.2 nM
